Data reported in patent publication US9089587B2, “Treatment of papulopustular rosacea with ivermectin” (Galderma S.A., priority 2013, dated 2015).

Experiments:
[1] = test system: subjects with moderate or severe papulopustular rosacea; assay: Ivermectin 1% cream vs metronidazole 0.75% cream, Period A, 16 weeks (Example 4); format: in vivo, human; settings: week 12 (highest difference)
Description: Study visits during Period A were as follows: a screening visit, and at baseline, weeks 3, 6, 9, 12 and 16.
Eligible subjects were 18 years or older, with moderate or severe papulopustular rosacea as noted by an IGA of 3 (“several small or large papules/pustules, moderate erythema”) or 4 (“numerous small and/or large papules/pustules, severe erythema”), and presenting with 15-70 facial inflammatory lesions (papules and pustules).
The subjects were instructed to maintain a consistent lifestyle throughout the study regarding rosacea triggers (i.e. avoiding environmental factors, certain foods, and excessive sun exposure).
Efficacy assessments at each visit were inflammatory lesion counts (papules and pustules) counted on five facial regions (forehead, chin, nose, right cheek, left cheek), and the Investigator's Global Assessment (IGA) of disease severity. Safety assessments included adverse events (AEs) throughout the study, local tolerance parameters (stinging/burning, dryness, itching) at each visit evaluated on a 4-point scale (from 0 (none) to 3 (severe)), and laboratory parameters measured at baseline, weeks 9 and 16. Other assessments included the subject's evaluation of rosacea improvement compared to their condition at baseline, and subject's appreciation questionnaire at the end of the study (regarding satisfaction with the study drug). […]

[2] = test system: subjects with moderate or severe papulopustular rosacea; assay: Study 1 and Study 2: once-daily ivermectin 1% cream vs vehicle, first part, 12 weeks (Example 3); format: in vivo, human
Description: Both studies were conducted in accordance with the ethical principles of the Declaration of Helsinki and Good Clinical Practices, and in compliance with local regulatory requirements.
Each study had three parts. In the first part of the study, subjects with PPR were treated with ivermectin 1% cream (IVM 1%) or vehicle once daily at bedtime for 12 weeks. In the second part of the study, subjects initially treated with IVM 1% once daily at bedtime continued the same treatment, while subjects treated with the vehicle once daily switched to topical treatment with azelaic acid 15% gel twice daily, in the morning and evening. The third part of the study consisted of 4 weeks safety follow-up, without treatment. […]
Efficacy assessments at each visit were the IGA of disease severity, and inflammatory lesion counts (papules and pustules) on each of the five facial regions (forehead, chin, nose, right cheek, left cheek). Safety assessments included adverse events (AEs) throughout the study, local tolerance parameters (stinging/burning, dryness, itching) at each study visit evaluated on a 4-point scale [from 0 (none) to 3 (severe)], and laboratory parameters (hematology and biochemistry) measured before and after treatment. […]

5-O-demethyl-22,23-dihydroavermectin A1a plus 5-O-demethyl-25-de(1-methylpropyl)-25-(1-methylethyl)-22,23-dihydroavermectin A1a [ivermectin]
difference in IGA success rate, ivermectin superior to metronidazole [1]: 14.9% | median reduction from baseline in inflammatory lesion counts ([2]; Study 1, week 2): about 30% | median reduction from baseline in inflammatory lesion counts ([2]; Study 2, week 2): 27.3%
